In patent US20150283127A1, “SAQUINAVIR-NO FOR IMMUNOMODULATION” (ONCONOX APS, priority 2012, published 2015):

What was measured:
[1] = system: human PBMC; conditions: PMA plus ionomycin, cited from earlier work
[2] = system: rat LNC; assay: Viability of rat LNC (MTT mitochondrial activity assay); assay type: cell-based; conditions: ConA, 24 hours, difference not statistically significant
Text: (§1) Experimental animals (C57BL/6 mice, BALB/c mice and Dark Agouti rats) were obtained from the Animal House Facility of the Institute for Biological Research “Sinisa Stanković”, Belgrade, Serbia. Spleen cells (SPC) were isolated from murine spleens and lymph node cells (LNC) were obtained from rat cervical lymph nodes of untreated animals. Draining lymph node cells (DLNC) were obtained from popliteal lymph nodes 8-10 days after immunization of rats with myelin basic protein (guinea pig MBP, kind gift from professor Alexander Fluegel, University of Goettingen, Germany) and complete Freund's adjuvant (CFA, Difco, Detroit, Mich.). The organs were mechanically disrupted, passed through 40-μm nylon mesh filter and the resulting suspension was collected by centrifugation. Red blood cells from single cell suspensions obtained from spleens were lysed using RBC Lysis Buffer (eBioscience, San Diego, Calif.). […] Obtained purity of CD4 population was more than 97% as determined by flow cytometry. […]
(§2) In order to assess the viability of SPC, LNC, DLNC and SCC by mitochondrial activity assay we used the mitochondrial-dependent reduction of 3-(4,5-dimethylthiazol-2-yl)-2,5-[…] bromide (MTT) to formazan. […] The absorbances in MTT assay were measured at […], with a correction at 690 nm, using an automated microplate reader (LKB 5060-006, LKB, Vienna, Austria).

[3] = system: experimental autoimmune uveoretinitis (EAU); assay: Experimental autoimmune uveoretinitis (EAU) in the Wistar rat, histology; assay type: in vivo
Protocol: Female Wistar Rats n=28 (8 weeks-old) were purchased from Pasteur Institute (Algiers, Algeria). These rats were acclimated to their new environment for one week before the start of experiments and kept under normal conditions with a 12 h dark/light cycle and free access to food and water.
These animals were divided into four groups:
Control group (n=6) it consisted in non treated animals
Vehicle group (n=6) received a daily intraperitoneal injection of DMSO at 20% starting from the day of immunization.
Retinal crude extract immunized rats (referred to as EAU group n=8) received a single subcutaneous injection of 200 μL with Retinal Crude Extract emulsified in complete Freund's adjuvant; CFA (v/v) and were left untreated.
SaqNO (reference) treated rats (n=8) they received a daily intraperitoneal injection of SaqNO at 10 μg/kg starting from the day of immunization.
Fresh bovine eyes (n=20) were used in the experiments. They were cut just in posterior to the ora serrata, the vitreous was then removed without causing retinal detachment. The retinas were removed carefully and put in PBS, pH 7.4. They were then subjected to three successive thermal shock (−20° C. and +37°) in order to release retinal antigens. The retinal crude extract was obtained after a centrifugation at 4000 rpm for 15 min and conserved at −20° C. until further utilization.
[…]. In parallel, all rats from each group were also sacrificed.
For histopathological analysis, eyes were enucleated from each group and fixed in 10% phosphate-buffered formaldehyde. Tissue sections of 5 μm thickness were stained with hematoxylin and eosin (H&E). Sections were examined using a standard microscope (Zeiss) and pictures were taken using a digital camera at ×40 resolution Histological criteria were based on the degree of architectural changes. The histological scores were assessed semi-quantitatively by microscopic examination as follows:
No morphological changes, 0; minimal morphological changes of the outer nuclear layer (ONL) in retina, 1; atrophy of INL, 2; disappearance of INL, 3; and damage of total retinal layers, 4.

[4] = system: murine SPC; assay: Viability of murine SPC (MTT mitochondrial activity assay); assay type: cell-based, mouse; conditions: minor compared with the influence on cytokines
Text: as §1, §2

CC(C)(C)NC(=O)[C@@H]1C[C@@H]2CCCC[C@@H]2CN1C[C@@H](O)[C@H](Cc1ccccc1)NC(=O)[C@H](CC(N)=O)NC(=O)c1ccc2ccccc2n1 [Saq, (2S)—N-[(2S,3R)-4-[(3S)-3-(tert-butylcarbamoyl)-decahydroisoquinolin-2-iy]-3-hydroxy-1-phenylbutan-2-il]-2-(quinolin-2-ylformamido)butanediamide, reference compound]
TNF-alpha synthesis ([1]; 10 to 20 μM): without influencing
Synthesis of IL-2 and IFN-gamma production ([1]; concentration between 10 and 20 μM): downregulate

CC(C)(C)NC(=O)C1C[C@@H]2CCCC[C@@H]2CN1CC(O[N+](=O)[O-])[C@H](Cc1ccccc1)NC(=O)C(CC(N)=O)NC(=O)c1ccc2ccccc2n1 (some centres unmarked) [Saq-NO, nitric ester of Saquinavir]
LNC viability [2]: affected only with the highest dose
Uveitis clinical score ([3]; 10 μg/kg daily, P<0.05): improved significantly
Histological structure of retinal tissue ([3]; 10 μg/kg i.p. daily from immunization, day 14): ameliorated significantly
Histopathological scores ([3]; 10 μg/kg, P<0.05): ameliorated
Development of EAU ([3]; prophylactic treatment): prevents development of EAU
SPC viability [4]: statistically significantly inhibited
